Reference: patent US10508147B2, “Anti-nodal antibodies and methods of using same” (ANN AND ROBERT H. LURIE CHILDREN'S HOSPITAL OF CHICAGO, priority 2014, dated 2019)
Entries after “also recorded” stand apart in the source; their conditions may differ.

Experiments:
3D1 mAb = assay: ELISA epitope mapping and specificity assay of coated peptides probed with 3D1; assay type: binding, mouse; settings: peptides coated at 1.0 μg/mL; 3D1 mAb 1.0 μg/mL
Description: Residues underlying the binding between 3D1 and Nodal were investigated by epitope mapping using a set of Nodal synthetic peptides (See FIG. 9). […] Peptides were immobilized at 1 μg/mL and probed with 3D1 at […]. Data were normalized to the binding of the peptide hNODAL (44-69) wild-type (WT). […] Most interactions were established with C43, P46, V47, E49, E50. The effect of Y58 can be on the conformation of the peptide.
Peptides used for the epitope mapping and for the specificity assay of the 3D1 mAb were coated at 1.0 μg/mL diluted in PBS; 3D1 mAb, dissolved in PBS, was used as primary antibody at 1.0 μg/mL.

endogenous Nodal = assay: Western blot competition between 3D1 antigen peptide and endogenous Nodal in human embryonic stem cell lysates; assay type: binding; settings: 3D1 4 μg/mL, hNodal(44-56) 10 μg/mL; H9 and H14 hESC lysates
Description: Thirty micrograms of H9 and H14 human embryonic stem cell total protein lysates, obtained as previously described, were separated on a 15% SDS-PAGE gel under reducing conditions and the resolved proteins were transferred onto a PVDF membrane. 50 ng of rhNodal protein were used as positive control. A Western blotting procedure was conducted: membranes were blocked, then probed with the 3D1 alone at 4.0 μg/mL in 2.5% NFDM in TBS-T and with the 3D1 mAb at 4.0 μg/mL pre-incubated with its antigen, the hNodal(44-56) peptide at 10 μg/mL. […] Blots were developed with Enhanced Chemiluminescence Western Blot Substrate (Pierce, Rockford, Ill., USA) following the manufacturer's instructions and were acquired by using a Chemidoc XRS video densitometer (Bio-Rad, Hercules, Calif., USA).

[1] = tested on: A375SM human metastatic melanoma cells; assay: A375SM orthotopic xenograft in Nude mice; assay type: in vivo
Description: Experiments were carried out to determine the in vivo effects of 3D1 mAb on primary melanoma. To this end, 500,000 C8161 cells were injected subcutaneously in Nude mice. Palpable tumors were then injected directly with either 700 μg of total 3D1 mAb or IgG control antibody (alternate day intratumoral injection of 100 μg over 14 days). Mice were then sacrificed and subcutaneous tumors harvested and processed as previously described. To evaluate the effect of 3D1 mAb in the presence of the BRAF(V600E) mutation, a third orthotopic xenograft model was established in Nude mice via subcutaneous injection of approximately 150,000 A375SM human metastatic melanoma cells. Mice were treated IP with 3D1 mAb or IgG control, as described above, or 3 mg/kg of dabrafenib.
Four micron thick, formalin fixed, paraffin embedded tissue sections were prepared and immunohistochemistry was carried out on a Dako Plus autostainer (DAKO, Inc, Carpenteria, Calif.). Following antigen retrieval and blocking steps, sections were incubated in primary antibody for 60 mins, followed by appropriate biotinylated secondary antibody (Biocare Medical, Conrad, Calif.), and then streptavidin-horseradish peroxidase (Thermo Scientific Lab Vision). Color was developed with 3,3′-diaminobenzidine substrate (Thermo Scientific Lab Vision) and sections were counterstained with hematoxylin (Biocare Medical, LLC). As a negative control, adjacent serial sections were incubated with species appropriate irrelevant IgG (Jackson ImmunoResearch Labs) at the same concentration as primary antibodies. Similar to the lung tumor burden evaluation described above, mean percentage of positive staining±SEM was determined by 2 different observers, each calculating the ratio of positive cells/total number of cells×100 for 4 separate high power fields (63× objective) from at least 2 different mice per group.

[2] = tested on: A375SM human melanoma cell line; assay: Western blot of A375SM cells treated with BRAFi (dabrafenib) or 3D1; assay type: cell-based; settings: 72 hr
Description: To determine the level of Nodal expression in brain, kidney, liver, pancreas, heart and skeletal muscle ready to use adult tissue extracts for Western blotting (WB) were purchased from Santa Cruz Biotechnology. For WB experiments of cell lines, whole cell lysates were prepared and quantified. SDS-PAGE gel electrophoresis and WB were performed using standard techniques. PVDF membranes were blocked in 5% non-fat milk or 5% BSA and antibodies diluted in either 5% non-fat milk or 5% bovine serum albumin overnight at 4° C., depending on the manufacturer's recommendations. Signal was detected using West Pico chemiluminescence reagent (Thermo Fisher) and exposure to x-ray film.

| ELISA signal for binding to 3D1 (3D1 mAb) | Molecule | staining of endogenous Nodal by 3D1 after pre-incubation with the peptide (endogenous Nodal) | mean percentage (±SEM) of nuclear P-Smad2 ([1]; IHC, N=4) | tumor volumes ([1]; after 8 days, vs IgG control) | Nodal expression [2] | ERK1/2 activity (P-ERK1/2) ([2]; dabrafenib 10 nM) |
| --- | --- | --- | --- | --- | --- | --- |
| bound with similar efficiency | CEGECPNPVGEEFHPTNHAYIQSLLKRYQPHRVPSTC [hNodal(39-75)] |  |  |  |  |  |
| strongest signal | PNPVGEEFHPTNH [hNodal(44-56)] | no longer detectable |  |  |  |  |
|  | CC(C)(C)c1nc(-c2cccc(NS(=O)(=O)c3c(F)cccc3F)c2F)c(-c2ccnc(N)n2)s1 [dabrafenib] |  | 68.7%±6.3% | trend towards reduced tumor volumes | relatively unaffected; also recorded: only minimally affected | significantly reduced |
